Assay results taken from patent US11285103B2, “Degradable hydrogel under physiological conditions” (priority 2015, dated 2022).
One block for each compound: values may come before it. Numbered stars: 1 amine (or outer) side, 2 acyl side, 3 side chain; on linkers, the order of the positions; unused ones are H or OH. Square brackets hold non-standard residues; d marks the D form. Peptide text beside a SMILES is read from it. * marks the point of attachment. Fmoc = O=C(OCC1c2ccccc2-c2ccccc21)*; X1 = NCCc1cc(CN[*:1])ccc1C(=O)[*:2]

What was measured:
[1] = Determination of half life in PBS (cleavage of biodegradable linkers from model peptides); format: physicochemical; settings: linker X on N terminus of model peptide X-[…]; 1 mg/mL in PBS, 37° C.; read-out: t1/2 (h), cleavage of biodegradable linker (converted)
Method: Peptides GIVEQAA-NH2 (SEQ ID NO: 3) and […] (SEQ ID NO: 2), two mimics of the N-terminus section of insulin A chain, were used as model peptides to determine the half lives of various biogradable linkers linked to the N-terminus of the peptides through an amide bond. The model peptides were prepared with Fmoc chemistry, cleaved by TFA and purified by preparative RP-HPLC.
A model peptide capped with a biodegradable linker was dissolved at 1 mg/mL concentration in PBS and the solution was incubated at 37° C. in a water bath. Samples were collected for analysis at different time points (e.g., 8 h, 16 h, 24 h, 48 h, 72 h, 96 h, 120 h). […] The cleavage of a biodegradable linker was quenched by lowering pH to 2 by addition of 0.1% TFA solution. RP-HPLC was used to monitor the cleavage reactions and the cleavage rates were quantitatively studied by measuring the peak areas of model peptides when they are capped with biodegradable linkers and when linkers are released. […]
The rate of cleavage was determined for the model peptides capped with respective biodegradable linkers. The concentrations of the model peptides capped with biodegradable linkers and the released model peptides were determined by their respective peak areas. […] The cleavage half life of a peptide capped with a biodegradable linker was calculated by using the equation and the slope derived from this plot. […]

[2] = Determination of half life in serum (cleavage of biodegradable linkers from model peptide); format: in vitro ADME; settings: serum (100%); linker X on N terminus of model peptide X-G-dI-dV-dE-dQ-dA-dA; 100% serum, 37° C.; read-out: t1/2 (h), cleavage of biodegradable linker (converted)
Method: Model peptides X-G-dI-dV-dE-dQ-dA-dA (SEQ ID NO:4) capped with various biodegradable linkers were used in the assay. D amino acids were used to prevent other enzymatic cleavage of the model peptides. The peptides were dissolved in 100% serum and incubated at 37° C. Samples were collected for analysis at different time points (e.g., 8 h, 16 h, 24 h, 48 h, 72 h, 96 h, and 120 h).
The rate of cleavage was determined for the model peptides capped with respective biodegradable linkers. The concentrations of the model peptides capped with biodegradable linkers and the released model peptides were determined by their respective peak areas. The first order dissociation rate constant of a model peptide capped with a biodegradable linker was determined by plotting the logarithm of [starting model peptide capped with the biodegradable linker]/[remaining model peptide capped with the biodegradable linker] at various time intervals. The cleavage half life of a peptide capped with a biodegradable linker was calculated by using the equation and the slope derived from this plot.

diabetic rats = experiment: Blood glucose change in streptozotocin-induced diabetic rats; format: in vivo, Wistar rats; settings: 40 nmol/kg daily
Method: 9-week-old male Wistar rats, average weight 240±10 g, were housed in polypropylene cages and maintained at constant temperature and humidity on a 12 hour light/dark cycle, and allowed access to food and water ad libitum. When diabetes was induced, rats were fasted for 48 hours and intraperitoneally injected with streptozotocin (60 mg/kg, dissolved in […] sodium citrate buffer, pH 4.5), then food was provided. Blood glucose was checked after three days. Animals with blood glucose above 250 mg/dl was considered diabetic, and the rats with blood glucose higher than 450 mg/dl were used in the experiment. Recombinant insulin (24 nmol/kg) was injected daily to maintain blood glucose no higher than 550 mg/dl.
The insulin hydrogels were prepared according to the methods in Examples 8 and 20, but the hydrogel used in this example was loaded only with insulin. The actual insulin content was calculated with the method in Example 18.
Rats showing hyperglycemia (400-450 mg/dl) were divided into 3 groups, each containing 8 rats. Rats in the first group were intraperitoneally injected saline (100 μL). Rats in the second group were intraperitoneal injected insulin detemir (40 nmol/kg) daily. Rats in the third group were Injected hydrogel (75 nmol/kg, calculated according to the actual amount of human insulin in the hydrogel). […]

half-life at 1 mg/mL [1]: 264 h
Compound: CC1NCc2cc(CN)ccc2C1=O (stereo not drawn)

half-life [2]: 735 h
Compound: CC[C@@H](C)[C@@H](NC(=O)CNC(=O)c1ccc(CNC(=O)OCC2c3ccccc3-c3ccccc32)cc1CCN)C(=O)N[C@@H](C(=O)N[C@H](CCC(=O)O)C(=O)N[C@H](CCC(N)=O)C(=O)N[C@H](C)C(=O)N[C@H](C)C(=O)O)C(C)C (Fmoc-[X1]G[dI][dV][dE][dQ][dA][dA]-OH)

Compound: Insulin detemir
blood glucose lowering (diabetic rats): cannot effectively lower blood glucose
